Seven compounds from PubChem BioAssay (NCI) can be followed below.

Test systems include SK-MEL-28 melanoma; NCI/ADR-RES ovarian; OVCAR-5 ovarian; SK-MEL-5 melanoma; OVCAR-4 ovarian; SF-295 CNS; UO-31 renal; HOP-62 NSCLC; MCF7 breast; K-562 leukemia.
Holding throughout (experiment): NCI-60 cell line screen, 48 h

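In this assay, cells in 96-well plates receive the compound at five concentrations for 48 hours. Endpoints are linearly interpolated between the surrounding concentrations. At the GI50, growth is halved. TGI is the concentration that stops growth completely.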

Regarding `O=C(NNc1nc2c(F)cccc2n2cccc12)c1cnccn1`, the GI50 in the assay on SK-MEL-28 melanoma is 0.65 µM; in the assay with NCI/ADR-RES ovarian, 0.327 µM; in the assay on OVCAR-5 ovarian, 1.51 µM; with SK-MEL-5 melanoma it was 0.864 µM; in the assay with OVCAR-4 ovarian, 0.469 µM; with SF-295 CNS, 0.401 µM. Moreover, the GI50 is 0.216 µM in the assay with UO-31 renal, 0.365 µM with HOP-62 NSCLC, 0.412 µM in the assay on MCF7 breast and 0.478 µM in the assay with K-562 leukemia. Also, the TGI in the assay with SK-MEL-28 melanoma was 15.7 µM; in the assay on NCI/ADR-RES ovarian it was 23.3 µM; with OVCAR-5 ovarian it was above 61.1 µM; in the assay on SK-MEL-5 melanoma, 4.56 µM; in the assay with OVCAR-4 ovarian, 11 µM; in the assay on SF-295 CNS, 16 µM. Besides, the TGI with UO-31 renal is 13.6 µM; in the assay on HOP-62 NSCLC, 20 µM; in the assay on MCF7 breast, 29.6 µM; in the assay on K-562 leukemia, above 100 µM.

With `Cc1cc2nc3c4cc(Cl)ccc4n(CCN(C)C)c3nc2cc1C`, the GI50 in the assay on SK-MEL-28 melanoma is 2 µM; with NCI/ADR-RES ovarian, 1.07 µM; in the assay on OVCAR-5 ovarian, 2 µM; with SK-MEL-5 melanoma, 1.8 µM; in the assay on OVCAR-4 ovarian, 1.72 µM; in the assay on SF-295 CNS, 1.91 µM. In addition, the GI50 in the assay with UO-31 renal was 0.389 µM; in the assay on HOP-62 NSCLC, 1.53 µM; with MCF7 breast it was 1.06 µM; in the assay on K-562 leukemia, 1.36 µM. The TGI in the assay with SK-MEL-28 melanoma was 3.53 µM; with NCI/ADR-RES ovarian it was 5.04 µM; in the assay on OVCAR-5 ovarian, 5.2 µM; in the assay on SK-MEL-5 melanoma it was 3.22 µM; with OVCAR-4 ovarian, 9.08 µM; in the assay with SF-295 CNS it was 3.79 µM. Further, the TGI in the assay on UO-31 renal came out at 3.35 µM; in the assay with HOP-62 NSCLC, 4.57 µM; in the assay on MCF7 breast, 2.49 µM; in the assay with K-562 leukemia, 4.03 µM.

For the compound `Cc1nn(-c2ccc(S(=O)(=O)[O-])cc2)c([O-])c1N=[N+](C)c1ccc(-c2ccc(N=Nc3ccc4c(S(=O)(=O)[O-])cc(S(=O)(=O)[O-])c(N)c4c3[O-])c([O-])c2)cc1[O-].[Cu+2].[Cu+2].[Na+]`, the GI50 in the assay on SK-MEL-28 melanoma, with NCI/ADR-RES ovarian, with OVCAR-5 ovarian, with SK-MEL-5 melanoma, in the assay with OVCAR-4 ovarian and with SF-295 CNS was above 100 µM each time. Besides, the GI50 in the assay on UO-31 renal was 3.19 µM; with HOP-62 NSCLC it was above 100 µM; with MCF7 breast it was above 100 µM; in the assay with K-562 leukemia, above 100 µM. Besides, the TGI in the assay with SK-MEL-28 melanoma, in the assay with NCI/ADR-RES ovarian, in the assay on OVCAR-5 ovarian, with SK-MEL-5 melanoma, in the assay with OVCAR-4 ovarian and in the assay on SF-295 CNS was above 100 µM each time. The TGI with UO-31 renal, in the assay with HOP-62 NSCLC, with MCF7 breast and in the assay on K-562 leukemia was above 100 µM throughout.

Regarding `CCn1c(-c2nonc2N)nc2c(C#CCN)ncc(OCCCN)c21`, the GI50 with SK-MEL-28 melanoma, with NCI/ADR-RES ovarian, in the assay on OVCAR-5 ovarian, in the assay with SK-MEL-5 melanoma, in the assay with OVCAR-4 ovarian and with SF-295 CNS was above 25 µM in each case. Also, the GI50 in the assay with UO-31 renal, in the assay on HOP-62 NSCLC, in the assay on MCF7 breast and in the assay with K-562 leukemia was above 25 µM throughout. The TGI with SK-MEL-28 melanoma, with NCI/ADR-RES ovarian, with OVCAR-5 ovarian, with SK-MEL-5 melanoma, with OVCAR-4 ovarian and in the assay with SF-295 CNS was above 25 µM each time. In addition, the TGI with UO-31 renal, in the assay on HOP-62 NSCLC, with MCF7 breast and in the assay on K-562 leukemia was above 25 µM in each case.

For the compound `COc1cc2ncn(-c3cc(OCc4ccccc4Cl)c(C(N)=O)s3)c2cc1OC`, the GI50 in the assay on SK-MEL-28 melanoma was 1.46 µM; in the assay with NCI/ADR-RES ovarian, 0.22 µM; in the assay with OVCAR-5 ovarian it was 0.492 µM; in the assay with SK-MEL-5 melanoma it was 0.0993 µM; in the assay on OVCAR-4 ovarian, 2.09 µM; with SF-295 CNS, 0.186 µM. The GI50 is 1.14 µM in the assay on UO-31 renal, 0.217 µM in the assay with HOP-62 NSCLC, 0.0885 µM with MCF7 breast and 0.114 µM in the assay on K-562 leukemia. For the same compound, the TGI in the assay on SK-MEL-28 melanoma is above 25 µM; in the assay on NCI/ADR-RES ovarian it was above 10.3 µM; with OVCAR-5 ovarian, above 25 µM; in the assay with SK-MEL-5 melanoma, 3.13 µM; with OVCAR-4 ovarian it was above 25 µM; in the assay with SF-295 CNS, above 11.2 µM. Further, the TGI with UO-31 renal was above 25 µM; in the assay with HOP-62 NSCLC, 7.15 µM; in the assay on MCF7 breast, above 25 µM; in the assay with K-562 leukemia, above 25 µM.

On to `O=C(Nc1nc2ccccc2s1)OCC(F)(F)F`, for which the GI50 in the assay with SK-MEL-28 melanoma, in the assay with NCI/ADR-RES ovarian, in the assay on OVCAR-5 ovarian, in the assay with SK-MEL-5 melanoma, in the assay on OVCAR-4 ovarian and in the assay with SF-295 CNS was above 100 µM each time. For the same compound, the GI50 is 45.6 µM in the assay with UO-31 renal, above 100 µM in the assay on HOP-62 NSCLC, above 100 µM in the assay with MCF7 breast and above 100 µM in the assay on K-562 leukemia. The TGI in the assay with SK-MEL-28 melanoma, with NCI/ADR-RES ovarian, in the assay with OVCAR-5 ovarian, in the assay with SK-MEL-5 melanoma, in the assay with OVCAR-4 ovarian and in the assay with SF-295 CNS was above 100 µM throughout. For the same compound, the TGI in the assay with UO-31 renal, in the assay on HOP-62 NSCLC, in the assay on MCF7 breast and in the assay on K-562 leukemia was above 100 µM each time.

In the case of `COC(=O)C1OC(O[C@H]2CCC3(C)C(CCC4(C)C3CC=C3C5CC(C)(C)CCC5(C(=O)O)CC[C@]34C)C2(C)C)C(O)C(OC2OC(CO)C(O)C(O)C2O)C1O` (stereo partly drawn), the GI50 in the assay with SK-MEL-28 melanoma was 10.2 µM; in the assay with NCI/ADR-RES ovarian, 7.24 µM; in the assay on OVCAR-5 ovarian, 7.31 µM; with SK-MEL-5 melanoma, 6.14 µM; in the assay with SF-295 CNS, 11.8 µM; in the assay with UO-31 renal, above 33.3 µM. Also, the GI50 was 6.21 µM in the assay with HOP-62 NSCLC, 9.92 µM in the assay with MCF7 breast and 8.17 µM with K-562 leukemia. Further, the TGI is 24.1 µM in the assay with SK-MEL-28 melanoma; 13.5 µM in the assay with NCI/ADR-RES ovarian; 13.5 µM in the assay on OVCAR-5 ovarian; 11.4 µM with SK-MEL-5 melanoma; above 33.3 µM in the assay with SF-295 CNS; above 33.3 µM with UO-31 renal. Besides, the TGI in the assay on HOP-62 NSCLC worked out at 11.6 µM; with MCF7 breast, 26.4 µM; in the assay on K-562 leukemia it was 26.6 µM.
